Measured values published in patent US12180187B2, “1-phenyl-5-azinylpyrazolyl-3-oxyalkyl acids and their use for controlling unwanted plant growth” (BAYER AKTIENGESELLSCHAFT, priority 2019, dated 2024).

Tests used:
VIOTR = assay: Pre-emergence action at 320 g/ha against VIOTR; format: in vivo, Viola tricolor; details: dosage 320 g/ha
Outline: (§1)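 Application: aqueous WP or EC with 0.5% additive on soil covering seeds, 600 l/ha. Read-out: visual percent damage after ~3 weeks in greenhouse, untreated pots as reference.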

AMARE [1] = assay: Pre-emergence action against AMARE, 1280 g/ha; format: in vivo, Amaranthus retroflexus; details: scored visually after about 3 weeks vs untreated controls (100% = plants have died)
Outline: (§2)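 Activity was scored visually as percent versus untreated controls about 3 weeks after treatment (100% = dead plants, 0% = control-like). Compounds, formulated as wettable powders or emulsion concentrates, were sprayed onto the covering soil over freshly sown seeds in sandy loam, with 0.5% additive and 600 L/ha water.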

STEME [2] = assay: Post-emergence action against STEME, 1.28 kg/ha; format: in vivo, Stellaria media; details: dosage 1280 g/ha, visual rating about 3 weeks after treatment vs untreated controls (100% = plants died)
Outline: (§3)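 Greenhouse pot test, sandy loam; weeds sprayed post-emergence at one-leaf stage (2–3 weeks after sowing) with WP or EC formulation plus 0.5% additive, 600 l/ha water. Visual rating after about 3 weeks versus untreated controls, 100% = plants dead, 0% = like control.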

VERPE [3] = assay: Pre-emergence action at 320 g/ha against VERPE; format: in vivo, Veronica persica; details: visual scoring after about 3 weeks vs untreated controls
Outline: as §1

MATIN [4] = assay: Pre-emergence action against MATIN, 1280 g/ha; format: in vivo, Tripleurospermum inodorum (Matricaria inodora); details: scored visually after about 3 weeks vs untreated controls (100% = plants have died)
Outline: as §2

LOLRI [5] = assay: Pre-emergence action at 320 g/ha against LOLRI; format: in vivo, Lolium rigidum; details: visual scoring after about 3 weeks vs untreated controls
Outline: as §1

MATIN [6] = assay: Post-emergence action against MATIN, 1.28 kg/ha; format: in vivo, Tripleurospermum inodorum (Matricaria inodora); details: dosage 1280 g/ha, visual rating about 3 weeks after treatment vs untreated controls (100% = plants died)
Outline: as §3

DIGSA [7] = assay: Post-emergence action against DIGSA, 1.28 kg/ha; format: in vivo, Digitaria sanguinalis; details: dosage 1280 g/ha, visual rating about 3 weeks after treatment vs untreated controls
Outline: as §3

ALOMY [8] = assay: Post-emergence action against ALOMY, 320 g/ha; format: in vivo, Alopecurus myosuroides; details: dosage 320 g/ha, visual rating about 3 weeks after treatment vs untreated controls (100% = plants died)
Description: (§4) Accordingly, the compounds of the invention have good herbicidal action against a broad spectrum of weed grasses and broad-leaved weeds and are therefore suitable for controlling unwanted vegetation by the post-emergence method. • b) Seeds of monocotyledonous and dicotyledonous weeds and crop plants are placed in sandy loam in plastic or organic planting pots, covered with soil and cultivated in a greenhouse under controlled growth conditions. 2 to 3 weeks after sowing, the test plants are treated at the one-leaf stage. The compounds of the invention, formulated in the form of wettable powders (WP) or as emulsion concentrates (EC), are then sprayed onto the green parts of the plants as aqueous suspension or emulsion with addition of 0.5% additive at a water application rate of 600 l/ha (converted). After the test plants have been kept in the greenhouse under optimum growth conditions for about 3 weeks, the activity of the preparations is rated visually in comparison to untreated controls. For example, 100% activity=the plants have died, 0% activity=like control plants. Tables 39 to 49 below show the effects of selected compounds of the general formula (I) according to Tables 1 and 2 on various harmful plants and at an application rate corresponding to 320 g/ha, which were obtained by the experimental procedure mentioned above.

ECHCG [9] = assay: Pre-emergence action against ECHCG, 1280 g/ha; format: in vivo, Echinochloa crus-galli; details: visual scoring after about 3 weeks vs untreated controls, 100% = plants have died, 0% = like control plants
Outline: as §2

DIGSA [10] = assay: Pre-emergence action at 320 g/ha against DIGSA; format: in vivo, Digitaria sanguinalis; details: visual scoring after about 3 weeks vs untreated controls
Outline: as §1

POLCO = assay: Pre-emergence action at 320 g/ha against POLCO; format: in vivo, Fallopia convolvulus (Polygonum convolvulus); details: visual scoring after about 3 weeks vs untreated controls
Outline: as §1

AMARE [11] = assay: Pre-emergence action at 320 g/ha against AMARE; format: in vivo, Amaranthus retroflexus; details: visual scoring after about 3 weeks vs untreated controls
Outline: as §1

DIGSA [12] = assay: Post-emergence action at 320 g/ha against DIGSA; format: in vivo, Digitaria sanguinalis; details: dosage 320 g/ha, visual rating about 3 weeks after treatment vs untreated controls (100% = plants died)
Description: as §4

KCHSC [13] = assay: Pre-emergence action against KCHSC, 1280 g/ha; format: in vivo, Bassia scoparia; details: scored visually after about 3 weeks vs untreated controls (100% = plants have died)
Outline: as §2

VERPE [14] = assay: Pre-emergence action against VERPE, 1280 g/ha; format: in vivo, Veronica persica; details: scored visually after about 3 weeks vs untreated controls (100% = plants have died)
Outline: as §2

SETVI [15] = assay: Pre-emergence action against SETVI, 1280 g/ha; format: in vivo, Setaria viridis; details: visual scoring after about 3 weeks vs untreated controls, 100% = plants have died, 0% = like control plants
Outline: as §2

KCHSC [16] = assay: Post-emergence action against KCHSC, 1.28 kg/ha; format: in vivo, Bassia scoparia; details: dosage 1280 g/ha, visual rating about 3 weeks after treatment vs untreated controls (100% = plants died)
Outline: as §3

ALOMY [17] = assay: Pre-emergence action against ALOMY, 1280 g/ha; format: in vivo, Alopecurus myosuroides; details: visual scoring after about 3 weeks vs untreated controls, 100% = plants have died, 0% = like control plants
Outline: as §2

POAAN [18] = assay: Post-emergence action against POAAN, 1.28 kg/ha; format: in vivo, Poa annua; details: dosage 1280 g/ha, visual rating about 3 weeks after treatment vs untreated controls
Outline: as §3

SETVI [19] = assay: Post-emergence action at 320 g/ha against SETVI; format: in vivo, Setaria viridis; details: visual rating about 3 weeks after treatment vs untreated controls
Description: as §4

ECHGC = assay: Pre-emergence action at 320 g/ha against ECHGC; format: in vivo, Echinochloa crus-galli; details: visual scoring after about 3 weeks vs untreated controls
Outline: as §1

MATIN [20] = assay: Pre-emergence action at 320 g/ha against MATIN; format: in vivo, Tripleurospermum inodorum (Matricaria inodora); details: visual scoring after about 3 weeks vs untreated controls
Outline: as §1

STEME [21] = assay: Pre-emergence action against STEME, 1280 g/ha; format: in vivo, Stellaria media; details: scored visually after about 3 weeks vs untreated controls (100% = plants have died)
Outline: as §2

LOLRI [22] = assay: Post-emergence action against LOLRI, 1.28 kg/ha; format: in vivo, Lolium rigidum; details: dosage 1280 g/ha, visual rating about 3 weeks after treatment vs untreated controls
Outline: as §3

POAAN [23] = assay: Pre-emergence action against POAAN, 1280 g/ha; format: in vivo, Poa annua; details: visual scoring after about 3 weeks vs untreated controls, 100% = plants have died, 0% = like control plants
Outline: as §2

LOLRI [24] = assay: Pre-emergence action against LOLRI, 1280 g/ha; format: in vivo, Lolium rigidum; details: visual scoring after about 3 weeks vs untreated controls, 100% = plants have died, 0% = like control plants
Outline: as §2

ALOMY [25] = assay: Pre-emergence action at 320 g/ha against ALOMY; format: in vivo, Alopecurus myosuroides; details: scored visually after about 3 weeks vs untreated controls (100% = plants have died)
Outline: as §1

AVEFA = assay: Pre-emergence action at 320 g/ha against AVEFA; format: in vivo; details: visual scoring after about 3 weeks vs untreated controls
Outline: as §1

DIGSA [26] = assay: Pre-emergence action against DIGSA, 1280 g/ha; format: in vivo, Digitaria sanguinalis; details: visual scoring after about 3 weeks vs untreated controls, 100% = plants have died, 0% = like control plants
Outline: as §2

ECHCG [27] = assay: Post-emergence action against ECHCG, 1.28 kg/ha; format: in vivo, Echinochloa crus-galli; details: dosage 1280 g/ha, visual rating about 3 weeks after treatment vs untreated controls
Outline: as §3

SETVI [28] = assay: Pre-emergence action at 320 g/ha against SETVI; format: in vivo, Setaria viridis; details: visual scoring after about 3 weeks vs untreated controls
Outline: as §1

For `CC(Oc1nn(-c2ccccc2F)c(-c2ccc(F)nc2)c1I)C(=O)O` (centres unmarked) [VII-118], the “Pre-emergence action against VIOTR in %” value (VIOTR) was 100%, the “Pre-emergence action against AMARE” value (AMARE [1]) was 100% and the “Post-emergence action against STEME” value (STEME [2]) was 100%. The “Pre-emergence action against VERPE in %” value (VERPE [3]) was 90%, the “Pre-emergence action against MATIN” value (MATIN [4]) was 100% and the “Pre-emergence action against LOLRI in %” value (LOLRI [5]) was 100%. The “Post-emergence action against MATIN” value (MATIN [6]) was 90%, the “Post-emergence action against DIGSA” value (DIGSA [7]) was 100% and the “Post-emergence action against ALOMY” value (ALOMY [8]) was 90%. For the same compound, the “Pre-emergence action against ECHCG” value (ECHCG [9]) was 100%, the “Pre-emergence action against DIGSA in %” value (DIGSA [10]) was 100% and the “Pre-emergence action against POLCO in %” value (POLCO) was 100%. For the same compound, the “Pre-emergence action against AMARE in %” value (AMARE [11]) was 100%, the “Post-emergence action at 320 g/ha against DIGSA in %” value (DIGSA [12]) was 90% and the “Pre-emergence action against KCHSC” value (KCHSC [13]) was 100%. The “Pre-emergence action against VERPE” value (VERPE [14]) was 100%, the “Pre-emergence action against SETVI” value (SETVI [15]) was 100% and the “Post-emergence action against KCHSC” value (KCHSC [16]) was 90%. For the same compound, the “Pre-emergence action against ALOMY” value (ALOMY [17]) was 100%, the “Post-emergence action against POAAN” value (POAAN [18]) was 100% and the “Post-emergence action against SETVI in %” value (SETVI [19]) was 80%. The “Pre-emergence action against ECHGC in %” value (ECHGC) was 90%, the “Pre-emergence action against MATIN in %” value (MATIN [20]) was 90% and the “Pre-emergence action against STEME” value (STEME [21]) was 100%. The “Post-emergence action against LOLRI” value (LOLRI [22]) was 100%, the “Pre-emergence action against POAAN” value (POAAN [23]) was 100% and the “Pre-emergence action against LOLRI” value (LOLRI [24]) was 100%. The “Pre-emergence action at 320 g/ha against ALOMY in %” value (ALOMY [25]) was 100%, the “Pre-emergence action against AVEFA in %” value (AVEFA) was 100% and the “Pre-emergence action against DIGSA” value (DIGSA [26]) was 100%. The “Post-emergence action against ECHCG” value (ECHCG [27]) was 100% and the “Pre-emergence action against SETVI in %” value (SETVI [28]) was 90%.
